From patent publication US4460595A, “Using urazole analogs of prostaglandins for bronchodilation” (Beecham Group Limited, priority 1976, dated 1984)

The molecules below were run on 5-hydroxytryptamineor histamine induced bronchoconstriction (assay: Inhibition of 5-hydroxytryptamine or histamine induced bronchoconstriction (Konzett-Rossler preparation)). Conditions: Cavia porcellus, iv, anaesthetised artificially respired guinea-pig.
Assay type: in vivo
From the text: The compounds are examined for their ability to inhibit 5-hydroxytryptamineor histamine induced bronchoconstriction in the anaesthetised artificially respired guinea-pig (Konzett-Rossler preparation).
The ED50 values (μg/kg, i.v.) for inhibition of bronchoconstriction for a variety of the triazolidine-3,5-diones are given in Table 7.

SMILES | ED50
CCCCCC(O)CCn1c(=O)n(C)c(=O)n1CCCCCCC(=O)OCC (stereo not shown) [Compound 21, 1-(6'-Ethoxycarbonyl-n-hexyl)-2-(3"-hydroxy-n-octyl)-4-methyl-1,2,4-triazolidine-3,5-dione] | 3.4 µg/kg
CCCCCC(O)CCn1c(=O)n(C)c(=O)n1CCCCCCC(=O)O (stereo not shown) [Compound 24, 1-(6'-Carboxy-n-hexyl)-2-(3"-hydroxy-n-octyl)-4-methyl-1,2,4-triazolidine-3,5-dione] | 4 µg/kg
CCCCCCC(C)(O)CCn1c(=O)n(C)c(=O)n1CCCCCCC(=O)OC (stereo not shown) [Compound 29, 1-(6'-methoxycarbonyl-n-hexyl-)-2-(3"-hydroxy-3"-methyl-n-nonyl)-4-methyl-1,2,4-triazolidine-3,5-dione] | 2.6 µg/kg
COC(=O)CCCCCCn1c(=O)n(C)c(=O)n1CCC(C)(O)Cc1ccccc1 (stereo not shown) [Compound 31] | 37 µg/kg
CCCCC(C)C(C)(O)CCn1c(=O)n(C)c(=O)n1CCCCCCC(=O)OC (stereo not shown) [Compound 32] | 0.74 µg/kg
COC(=O)CCCCCCn1c(=O)n(C)c(=O)n1CCC(C)(O)C1CCCCC1 (stereo not shown) [Compound 33] | 2.6 µg/kg
CCCCCCC(C)(O)CCn1c(=O)n(C)c(=O)n1CC=CCCCC(=O)OC (stereo not shown) [Compound 43, 1-(6'-methoxycarbonyl-n-hex-2-enyl)-2-(3"-hydroxy-3"-methyl-n-nonyl)-4-methyl-1,2,4-triazolidine-3,5-dione] | 1.9 µg/kg
